Test results from paper PMC3914206.

How the values were obtained:
Format in all cases: binding
Settings in all cases: Compound Concentration 10 µM
panel of 442 kinases [1] = molecular target: T1, panel of 442 kinases (Homo sapiens, UniProt Q86YV6)
T1 construct: purchased KINOMEscan
T1 sequence (Q86YV6 1-388): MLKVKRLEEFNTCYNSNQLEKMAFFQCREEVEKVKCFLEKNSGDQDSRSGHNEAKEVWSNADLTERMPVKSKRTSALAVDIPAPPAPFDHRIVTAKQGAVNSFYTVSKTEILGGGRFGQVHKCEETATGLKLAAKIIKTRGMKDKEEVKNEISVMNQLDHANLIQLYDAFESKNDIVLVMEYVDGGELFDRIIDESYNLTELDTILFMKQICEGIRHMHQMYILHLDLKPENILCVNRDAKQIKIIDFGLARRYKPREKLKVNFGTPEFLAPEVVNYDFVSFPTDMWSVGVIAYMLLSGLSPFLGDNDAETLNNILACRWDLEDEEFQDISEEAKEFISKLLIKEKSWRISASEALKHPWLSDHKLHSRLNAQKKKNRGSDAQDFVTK
Description: (§1) We assessed the selectivity of members of this scaffold using the KINOMEscan methodology across a near comprehensive panel of 442 kinases [[18,27]].

panel of 442 kinases [2] = molecular target: T2, panel of 442 kinases (Homo sapiens, UniProt P80192)
T2 construct: purchased KINOMEscan
Description: as §1

panel of 442 kinases [3] = molecular target: T3, panel of 442 kinases (Homo sapiens, UniProt P49137)
T3 construct: purchased KINOMEscan
Description: as §1

T3 sequence (P49137 whole entry): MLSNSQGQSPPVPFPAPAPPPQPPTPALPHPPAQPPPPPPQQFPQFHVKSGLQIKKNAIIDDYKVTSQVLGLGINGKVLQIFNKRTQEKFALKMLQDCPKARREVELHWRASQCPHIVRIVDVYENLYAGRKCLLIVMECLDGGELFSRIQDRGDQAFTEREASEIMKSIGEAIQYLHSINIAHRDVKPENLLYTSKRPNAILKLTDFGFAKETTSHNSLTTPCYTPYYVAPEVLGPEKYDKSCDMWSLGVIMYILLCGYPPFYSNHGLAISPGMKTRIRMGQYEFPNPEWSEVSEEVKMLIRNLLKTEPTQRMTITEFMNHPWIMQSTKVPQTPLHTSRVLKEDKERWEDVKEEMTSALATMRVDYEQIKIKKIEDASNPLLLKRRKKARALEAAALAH
T2 sequence (P80192 whole entry): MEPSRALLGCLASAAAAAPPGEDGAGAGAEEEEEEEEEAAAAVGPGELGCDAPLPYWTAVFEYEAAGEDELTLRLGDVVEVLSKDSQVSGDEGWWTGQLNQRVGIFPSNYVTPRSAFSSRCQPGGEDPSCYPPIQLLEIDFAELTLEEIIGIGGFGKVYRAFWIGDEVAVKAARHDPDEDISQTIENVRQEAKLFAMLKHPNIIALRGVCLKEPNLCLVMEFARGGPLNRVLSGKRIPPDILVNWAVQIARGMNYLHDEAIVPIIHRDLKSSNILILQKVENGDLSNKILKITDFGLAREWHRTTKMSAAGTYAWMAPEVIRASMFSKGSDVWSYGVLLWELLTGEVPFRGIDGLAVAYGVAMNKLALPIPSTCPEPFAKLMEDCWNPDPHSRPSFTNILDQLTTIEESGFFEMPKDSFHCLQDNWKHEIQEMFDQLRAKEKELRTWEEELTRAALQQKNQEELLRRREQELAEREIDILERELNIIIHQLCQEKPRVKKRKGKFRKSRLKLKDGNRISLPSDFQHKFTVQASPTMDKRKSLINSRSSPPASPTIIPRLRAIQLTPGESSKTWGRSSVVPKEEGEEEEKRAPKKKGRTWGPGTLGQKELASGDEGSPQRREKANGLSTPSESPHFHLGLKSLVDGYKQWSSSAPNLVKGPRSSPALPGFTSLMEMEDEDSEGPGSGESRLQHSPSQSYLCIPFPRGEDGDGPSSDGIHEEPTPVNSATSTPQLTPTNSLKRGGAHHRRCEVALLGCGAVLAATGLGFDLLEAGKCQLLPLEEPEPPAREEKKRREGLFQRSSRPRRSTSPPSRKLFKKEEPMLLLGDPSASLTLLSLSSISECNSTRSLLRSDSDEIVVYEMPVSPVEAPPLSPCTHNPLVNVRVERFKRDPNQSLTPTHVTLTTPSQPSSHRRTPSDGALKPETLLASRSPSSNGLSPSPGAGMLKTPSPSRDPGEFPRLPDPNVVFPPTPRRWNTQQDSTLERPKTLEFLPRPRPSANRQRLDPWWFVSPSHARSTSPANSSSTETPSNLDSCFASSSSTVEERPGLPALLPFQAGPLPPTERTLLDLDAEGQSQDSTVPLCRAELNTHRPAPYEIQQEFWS

SMILES | KINOMEscan: MYLK4 (panel of 442 kinases [1]) | KINOMEscan: MLK1 (panel of 442 kinases [2]) | KINOMEscan: MAPKAPK2 (panel of 442 kinases [3])
COc1cc(C(=O)N2CCC(N3CCN(C)CC3)CC2)ccc1Nc1ncc2c(n1)N1CCc3cccc(c31)C(=O)N2C [Compound 24] | 78 | 85 | 
CCOc1cc(C(=O)N2CCC(N3CCN(C)CC3)CC2)ccc1Nc1ncc2c(n1)N(C1CCCC1)c1ccccc1C(=O)N2C [Compound 26] | 100 | 100 | 100
COc1cc(C(=O)N2CCC(N3CCN(C)CC3)CC2)ccc1Nc1ncc2c(n1)N(C1CCCC1)c1ccccc1C(=O)N2C [Compound 25, 11-cyclopentyl-2-((2-methoxy-4-(4-(4-methylpiperazin-1-yl)piperidine-1-carbonyl)phenyl)amino)-5-methyl-5H-benzo[e]pyrimido[5,4-b][1,4]diazepin-6(11H)-one] | 88 | 100 | 100
COc1cc(C(=O)N2CCC(N3CCN(C)CC3)CC2)ccc1Nc1ncc2c(n1)N(C)c1ccccc1C(=O)N2C [15 (LRRK2-IN-1)] | 80 | 93 | 100
